Test results published in ChEMBL document CHEMBL1201862, “PubChem BioAssay data set” (2004).
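Step 1: Grow cells in 96-well plates. Step 2: Expose to compound for 48 hours at 5 concentrations. Step 3: Interpolate endpoints linearly; if unreached, use highest concentration. GI50: concentration for 50% inhibition of growth.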 Calls of active or inactive are those of the source. Rule as the data show it: active = GI50 up to about 1.1 µM and inactive = higher.

Key:
Assay in all cases: NCI tumour cell line growth inhibition, 48 h
[1] = system: 786-0
[2] = system: A549
[3] = system: CAKI-1
[4] = system: COLO 205
[5] = system: DU-145
[6] = system: HOP-62
[7] = system: LOX IMVI
[8] = system: MDA-MB-231
[9] = system: MDA-MB-435
[10] = system: MOLT-4
[11] = system: NCI-H23
[12] = system: OVCAR-8
[13] = system: SK-MEL-2
[14] = system: SK-MEL-5
[15] = system: SW-620
[16] = system: U-251
[17] = system: UACC-62
[18] = system: SNB-19
[19] = system: UO-31
[20] = system: Hs-578T

Row | SMILES | GI50 [1] | GI50 [2] | GI50 [3] | GI50 [4] | GI50 [5] | GI50 [6] | GI50 [7] | GI50 [8] | GI50 [9] | GI50 [10] | GI50 [11] | GI50 [12] | GI50 [13] | GI50 [14] | GI50 [15] | GI50 [16] | GI50 [17] | GI50 [18] | GI50 [19] | GI50 [20]
1 | CCOC(=O)COc1cc(-c2ccccc2F)nc2cc3c(cc12)OCO3 | > 100 µM (inactive) | > 100 µM (inactive) | > 100 µM (inactive) | > 100 µM (inactive) | > 100 µM (inactive) | > 100 µM (inactive) | 53.7 µM (inactive) | > 100 µM (inactive) | > 100 µM (inactive) | 27.8 µM (inactive) | > 100 µM (inactive) | > 100 µM (inactive) | > 100 µM (inactive) | 71.9 µM (inactive) | > 100 µM (inactive) | 93.5 µM (inactive) | > 100 µM (inactive) |  |  | 
2 | C=CCOC(=O)C1=C(CCC[C@@H](C)O[Si](C)(C)C(C)(C)C)N=C(N)N2[C@H](CCO)CC[C@@H]12 | 17.9 µM (inactive) | 10.3 µM (inactive) | 13.4 µM (inactive) | 10.9 µM (inactive) | 14.3 µM (inactive) | 14.1 µM (inactive) |  | 15.3 µM (inactive) | 14.7 µM (inactive) | 10.5 µM (inactive) | 17.7 µM (inactive) |  | 15.3 µM (inactive) | 12.4 µM (inactive) |  | 12.3 µM (inactive) | 15.8 µM (inactive) | 15.5 µM (inactive) | 16.1 µM (inactive) | 
3 | O=C(CCc1nnc(S)[nH]1)Nc1cccc(C(F)(F)F)c1 | > 100 µM (inactive) | > 100 µM (inactive) | > 100 µM (inactive) | 80 µM (inactive) |  | > 100 µM (inactive) | > 100 µM (inactive) |  |  | > 100 µM (inactive) | > 100 µM (inactive) | > 100 µM (inactive) | > 100 µM (inactive) | > 100 µM (inactive) | 11.2 µM (inactive) | > 100 µM (inactive) | > 100 µM (inactive) | > 100 µM (inactive) | > 100 µM (inactive) | 
4 | O=c1oc2ccc(Cl)cc2cc1-c1cn2cc(Cl)ccc2n1 | > 42.4 µM (inactive) | 14.1 µM (inactive) | > 22.4 µM (inactive) | > 100 µM (inactive) | > 100 µM (inactive) | > 69.3 µM (inactive) | > 28.2 µM (inactive) | > 70.3 µM (inactive) | 0.24 µM (active) | 6.46 µM (inactive) | > 100 µM (inactive) | > 57 µM (inactive) | > 100 µM (inactive) | > 100 µM (inactive) | > 32.3 µM (inactive) | > 49.3 µM (inactive) | 0.574 µM (active) |  | > 44 µM (inactive) | 
5 | CC1SC(=O)SC1C (configuration not stated) | > 100 µM (inactive) | > 100 µM (inactive) |  | > 100 µM (inactive) |  | > 100 µM (inactive) |  | > 100 µM (inactive) | > 100 µM (inactive) | > 100 µM (inactive) |  | > 100 µM (inactive) |  | > 100 µM (inactive) | > 100 µM (inactive) | > 100 µM (inactive) |  | > 100 µM (inactive) | > 100 µM (inactive) | > 100 µM (inactive)
6 | CCN(CC)CCCNc1n[n+]([O-])c2ccccc2[n+]1[O-] | 8.69 µM (inactive) | 12.6 µM (inactive) | 31.8 µM (inactive) | 11.2 µM (inactive) | 18.4 µM (inactive) |  |  | 6.01 µM (inactive) | 38.4 µM (inactive) | 2.73 µM (inactive) | 11.6 µM (inactive) | 8.51 µM (inactive) | 4.74 µM (inactive) | 1.52 µM (inactive) | 15.1 µM (inactive) | 18.5 µM (inactive) | 8.43 µM (inactive) | 25.9 µM (inactive) | 28.6 µM (inactive) | 
7 | COc1cc(Nc2cnc3cc(F)c(F)cc3n2)cc(OC)c1OC | > 100 µM (inactive) | > 100 µM (inactive) | > 100 µM (inactive) | > 100 µM (inactive) | > 100 µM (inactive) | 91.8 µM (inactive) | 40 µM (inactive) |  | > 100 µM (inactive) | > 100 µM (inactive) | 73.6 µM (inactive) | > 100 µM (inactive) | 84.3 µM (inactive) | > 100 µM (inactive) | > 100 µM (inactive) | > 100 µM (inactive) | > 100 µM (inactive) | > 100 µM (inactive) | > 100 µM (inactive) | 63.2 µM (inactive)
8 | Cc1cc(NS(=O)(=O)c2ccc(NC(=O)c3cccc4cc5ccccc5nc34)cc2)no1 | 16.7 µM (inactive) | 22 µM (inactive) | 21.9 µM (inactive) | 23.3 µM (inactive) |  | 27.6 µM (inactive) | > 10 µM (inactive) |  |  | 17.1 µM (inactive) | 17.2 µM (inactive) | 16.6 µM (inactive) | 18.7 µM (inactive) | 15.6 µM (inactive) | 25.3 µM (inactive) | 12.5 µM (inactive) | 13.8 µM (inactive) | 6.46 µM (inactive) | 6.87 µM (inactive) | 
9 | Cn1c(=O)n2c(-c3ccccc3)c(-c3ccccc3)n2c1=O | > 100 µM (inactive) | > 100 µM (inactive) | > 100 µM (inactive) | > 100 µM (inactive) |  | > 100 µM (inactive) | > 100 µM (inactive) | > 100 µM (inactive) |  | > 100 µM (inactive) | > 100 µM (inactive) | > 100 µM (inactive) | > 100 µM (inactive) | > 100 µM (inactive) | > 100 µM (inactive) | > 100 µM (inactive) | > 100 µM (inactive) | > 100 µM (inactive) | 82 µM (inactive) | > 100 µM (inactive)
10 | CC(=O)Nc1ccc(C(=O)NN2C(=O)C(Cl)C2c2cc(Br)cc(Br)c2O)cc1 (configuration not stated) | > 100 µM (inactive) | > 100 µM (inactive) | > 100 µM (inactive) | > 100 µM (inactive) |  | > 100 µM (inactive) | > 100 µM (inactive) |  |  | > 100 µM (inactive) | > 100 µM (inactive) | > 100 µM (inactive) | > 100 µM (inactive) | > 100 µM (inactive) | > 100 µM (inactive) | > 100 µM (inactive) | > 100 µM (inactive) | > 100 µM (inactive) | > 100 µM (inactive) | 
11 | CC(O)/C=C/C(CCC(C)CO)C(C)C (configuration not stated) | > 100 µM (inactive) | > 100 µM (inactive) | > 100 µM (inactive) | > 100 µM (inactive) |  | > 100 µM (inactive) | > 100 µM (inactive) |  |  | > 100 µM (inactive) | > 100 µM (inactive) | > 100 µM (inactive) | > 100 µM (inactive) | > 100 µM (inactive) | > 100 µM (inactive) | > 100 µM (inactive) | > 100 µM (inactive) | > 100 µM (inactive) | > 100 µM (inactive) | 
12 | COC(=O)Cn1c(=O)oc2nc(-c3ccccc3)cc(C(F)(F)F)c21 | > 100 µM (inactive) | 82 µM (inactive) | > 100 µM (inactive) | > 100 µM (inactive) | > 100 µM (inactive) | > 100 µM (inactive) |  | > 100 µM (inactive) | 49.4 µM (inactive) | 23.6 µM (inactive) | > 100 µM (inactive) | 18.3 µM (inactive) | > 100 µM (inactive) | 26.7 µM (inactive) | 73.1 µM (inactive) | 61.2 µM (inactive) | > 100 µM (inactive) | > 100 µM (inactive) | > 100 µM (inactive) | 
13 | CC(=O)c1ccc(NC(=O)C(=O)C(C#N)CC(C)(C)C=O)cc1 (configuration not stated) | > 100 µM (inactive) | > 100 µM (inactive) | > 100 µM (inactive) | > 100 µM (inactive) |  | > 100 µM (inactive) | > 100 µM (inactive) |  |  | > 100 µM (inactive) | > 100 µM (inactive) | > 100 µM (inactive) | > 100 µM (inactive) | > 100 µM (inactive) | > 100 µM (inactive) | > 100 µM (inactive) | > 100 µM (inactive) | > 100 µM (inactive) | > 100 µM (inactive) | 
14 | COc1ccc(OC)c2c(C(C)=O)cccc12 | > 100 µM (inactive) | > 100 µM (inactive) |  | > 100 µM (inactive) | > 100 µM (inactive) | > 100 µM (inactive) |  | > 100 µM (inactive) |  | 81.8 µM (inactive) | > 100 µM (inactive) | > 100 µM (inactive) |  | > 100 µM (inactive) | > 100 µM (inactive) | > 100 µM (inactive) | > 100 µM (inactive) | > 100 µM (inactive) | > 100 µM (inactive) | 88.9 µM (inactive)
15 | CC1CN=C(N(C)C(=O)Nc2ccc(Cl)cc2)S1 (configuration not stated) | 19.5 µM (inactive) | 16.7 µM (inactive) | 3.64 µM (inactive) | 13.4 µM (inactive) | 12.9 µM (inactive) | 48.2 µM (inactive) | 20.2 µM (inactive) | 32.1 µM (inactive) |  | 14 µM (inactive) | 21.3 µM (inactive) | 45.7 µM (inactive) | 15.4 µM (inactive) | 9.04 µM (inactive) | 20.4 µM (inactive) | 13.3 µM (inactive) |  | 49 µM (inactive) | 10.1 µM (inactive) | 25.5 µM (inactive)
16 | CCC(COC(=O)CC[C@@H](NC(=O)C(C)NC(=O)C(C)OC1C(O)C(CO)OC(OCc2ccccc2)C1NC(C)=O)C(N)=O)NC1c2ccccc2Nc2cccc([N+](=O)[O-])c21 (some centres not stated) | 67.1 µM (inactive) | > 100 µM (inactive) | > 100 µM (inactive) | > 100 µM (inactive) |  | > 100 µM (inactive) | > 100 µM (inactive) |  |  | > 100 µM (inactive) | > 100 µM (inactive) | > 100 µM (inactive) | > 100 µM (inactive) | > 100 µM (inactive) | > 100 µM (inactive) | > 100 µM (inactive) | > 100 µM (inactive) | > 100 µM (inactive) | > 100 µM (inactive) | 
